According to patent publication US20240408088A1, “PYRAZOLE DERIVATIVE, AND PREPARATION METHOD THEREFOR AND USE THEREOF IN MEDICINE” (Abbisko Therapeutics Co., Ltd., priority 2021, published 2024):
Like-named read-outs stand apart in the source and are kept apart here.

Key:
[1] = system: HCT 116 MTAP knockout cells; experiment: Human colon cancer HCT116 cell proliferation inhibition test (MTAP knockout cells, CellTiter-Glo, 6 days); type: cell-based
Description: (§1) • 1. HCT 116 MTAP knockout and MTAP wild-type cells were plated in 96-well flat bottom 5 plates, and cultured overnight with McCoy's 5A medium containing […]+1% penicillin-streptomycin at 37° C. and 5% CO2. • 2. On the next day, the compound was dissolved with DMSO, diluted with DMSO and medium successively and transferred to the cell plate. The final concentration of the compound was 10 μM, the compound was diluted 4 times, with 9 concentration gradients, and DMSO control was added. • 3. Cells that have not been treated with the compound were removed. CellTiter-Glo Luminescent Cell Viability Assay (Promega) was used to detect cell viability, the operation was performed with reference to the package insert of the kit, and then the cell plate was placed on EnVision Multilabel Reader to detect the cold light signal. • 4. Meanwhile, the cell plate treated with the compound was cultured at 37° C. and 5% CO2 for 6 consecutive days. • 5. Then, CellTiter-Glo was also used to detect cell viability. • 6. Finally, the four-parameter dose-response curve module of GraphPad Prism v 9.2.0 software was used to plot the dose-response curve and calculate the IC50 for proliferation inhibition (unit: nM).

[2] = system: HCT 116 MTAP wild-type cells; experiment: Human colon cancer HCT116 cell proliferation inhibition test (MTAP wild-type cells, CellTiter-Glo, 6 days); type: cell-based; conditions: HCT-116, 144 h
Description: as §1

| IC50 ([1]; Homo sapiens, HCT-116, 144 h) [nM] | IC50 [2] [nM] | IC50 [1] [nM] | Structure (SMILES) |
| --- | --- | --- | --- |
| 229 |  |  | CN(C)C1CN(c2cc(OC3CC3)c(C#N)c(-c3c(-c4ccc5c(=O)[nH]nc(CN)c5c4)cnn3C)c2F)C1 [Example 24, 2-(4-(4-(aminomethyl)-1-oxo-1,2-dihydrophthalazin-6-yl)-1-methyl-1H-pyrazol-5-yl)-6-cyclopropoxy-4-(3-(dimethylamino)azetidin-1-yl)-3-fluorobenzonitrile] |
| 57 |  |  | Cn1ncc(-c2ccc3c(=O)[nH]nc(CN)c3c2)c1-c1c(F)c(Cl)cc(N2CCC3(CC2)CC3(F)F)c1C#N [Example 33, 2-(4-(4-(aminomethyl)-1-oxo-1,2-dihydrophthalazin-6-yl)-1-methyl-1H-pyrazol-5-yl)-4-chloro-6-(1,1-difluoro-6-azaspiro[2.5]octan-6-yl)-3-fluorobenzonitrile] |
| 29 | 1050 |  | Cn1ncc(-c2cc(C3CC3)c3c(=O)[nH]nc(CN)c3c2)c1-c1c(F)cc2ccccc2c1C#N [Example 3, 2-(4-(4-(aminomethyl)-8-cyclopropyl-1-oxo-1,2-dihydrophthalazin-6-yl)-1-methyl-1H-pyrazol-5-yl)-3-fluoro-1-naphthalenenitrile] |
| 84 |  |  | Cn1ncc(-c2ccc3c(=O)[nH]nc(CN)c3c2)c1-c1c(F)c(Cl)cc(N2CC(F)C2)c1C#N [Example 34, 2-(4-(4-(aminomethyl)-1-oxo-1,2-dihydrophthalazin-6-yl)-1-methyl-1H-pyrazol-5-yl)-4-chloro-3-fluoro-6-(3-fluoroazetidin-1-yl)benzonitrile] |
| 922 |  |  | Cn1ncc(-c2ccc3c(=O)[nH]nc(CN)c3c2)c1-c1c(F)c(Cl)cc(N2CC(C)(O)C2)c1C#N [Example 35, 2-(4-(4-(aminomethyl)-1-oxo-1,2-dihydrophthalazin-6-yl)-1-methyl-1H-pyrazol-5-yl)-4-chloro-3-fluoro-6-(3-hydroxy-3-methylazetidin-1-yl)benzonitrile] |
| 1970 |  |  | Cn1ncc(-c2cnc3c(=O)[nH]nc(CN)c3c2)c1-c1c(F)cc2ccccc2c1C#N [Example 12, 2-(4-(5-(aminomethyl)-8-oxo-7,8-dihydropyrido[2,3-d]pyridazin-3-yl)-1-methyl-1H-pyrazol-5-yl)-3-fluoro-1-naphthalenenitrile] |
| 61 |  |  | CC1CCCN1c1cc(Cl)c(F)c(-c2c(-c3ccc4c(=O)[nH]nc(CN)c4c3)cnn2C)c1C#N (centres unmarked) [Example 20, 2-(4-(4-(aminomethyl)-1-oxo-1,2-dihydrophthalazin-6-yl)-1-methyl-1H-pyrazol-5-yl)-4-chloro-3-fluoro-6-(2-methylpyrrolidin-1-yl)benzonitrile] |
| 113 |  |  | Cn1ncc(-c2ccc3c(=O)[nH]nc(CN)c3c2)c1-c1c(F)c(N2CCC2)cc(OC2CC2)c1C#N [Example 17, 2-(4-(4-(aminomethyl)-1-oxo-1,2-dihydrophthalazin-6-yl)-1-methyl-1H-pyrazol-5-yl)-4-(azetidin-1-yl)-6-cyclopropoxy-3-fluorobenzonitrile] |
| 120 | 3660 |  | COC1CN(c2cc(OC3CC3)c(C#N)c(-c3c(-c4ccc5c(=O)[nH]nc(CN)c5c4)cnn3C)c2F)C1 [Example 23, 2-(4-(4-(aminomethyl)-1-oxo-1,2-dihydrophthalazin-6-yl)-1-methyl-1H-pyrazol-5-yl)-6-cyclopropoxy-3-fluoro-4-(3-methoxyazetidin-1-yl)benzonitrile] |
| 116 |  |  | Cn1ncc(-c2ccc3c(=O)[nH]nc(CN)c3c2)c1-c1c(F)c(Cl)cc(N2CCCCC2)c1C#N [Example 22, 2-(4-(4-(aminomethyl)-1-oxo-1,2-dihydrophthalazin-6-yl)-1-methyl-1H-pyrazol-5-yl)-4-chloro-3-fluoro-6-(piperidin-1-yl)benzonitrile] |
| 57 |  |  | Cn1ncc(-c2ccc3c(=O)[nH]nc(CN)c3c2)c1-c1c(F)c(Cl)cc(N2CCC2)c1C#N [Example 32, 2-(4-(4-(aminomethyl)-1-oxo-1,2-dihydrophthalazin-6-yl)-1-methyl-1H-pyrazol-5-yl)-6-(azetidin-1-yl)-4-chloro-3-fluorobenzonitrile] |
| 567 |  |  | Cn1ncc(-c2ccc3c(=O)[nH]nc(CN)c3c2)c1-c1c(F)c(N2CCC(O)C2)cc(OC2CC2)c1C#N (centres unmarked) [Example 25, 2-(4-(4-(aminomethyl)-1-oxo-1,2-dihydrophthalazin-6-yl)-1-methyl-1H-pyrazol-5-yl)-6-cyclopropoxy-3-fluoro-4-(3-hydroxypyrrolidin-1-yl)benzonitrile] |
| 14 | 2360 |  | Cn1ncc(-c2ccc3c(=O)[nH]nc(CN)c3c2)c1-c1c(F)c(Cl)cc(N2CC(F)(F)C2)c1C#N [Example 14, 2-(4-(4-(aminomethyl)-1-oxo-1,2-dihydrophthalazin-6-yl)-1-methyl-1H-pyrazol-5-yl)-4-chloro-6-(3,3-difluoroazetidin-1-yl)-3-fluorobenzonitrile] |
| 21 | 2540 |  | Cn1ncc(-c2ccc3c(=O)[nH]nc(CN)c3c2)c1-c1c(F)c(N2CCCC2)cc(OC2CC2)c1C#N [Example 16, 2-(4-(4-(aminomethyl)-1-oxo-1,2-dihydrophthalazin-6-yl)-1-methyl-1H-pyrazol-5-yl)-6-cyclopropoxy-3-fluoro-4-(pyrrolidin-1-yl)benzonitrile] |
| 184 |  |  | Cn1ncc(-c2cc(C3CC3)c3c(=O)[nH]nc(CN)c3c2)c1-c1c(F)c(Cl)cc(N2CCCC2)c1C#N [Example 11, 2-(4-(4-(aminomethyl)-8-cyclopropyl-1-oxo-1,2-dihydrophthalazin-6-yl)-1-methyl-1H-pyrazol-5-yl)-4-chloro-3-fluoro-6-(pyrrolidin-1-yl)benzonitrile] |
| 100 |  |  | Cn1ncc(-c2ccc3c(=O)[nH]nc(CN)c3c2)c1-c1c(F)c(N2CCOCC2)cc(OC2CC2)c1C#N [Example 15, 2-(4-(4-(aminomethyl)-1-oxo-1,2-dihydrophthalazin-6-yl)-1-methyl-1H-pyrazol-5-yl)-6-cyclopropoxy-3-fluoro-4-morpholinobenzonitrile] |
| 262 |  |  | CN(C)C1CCN(c2cc(OC3CC3)c(C#N)c(-c3c(-c4ccc5c(=O)[nH]nc(CN)c5c4)cnn3C)c2F)C1 (centres unmarked) [Example 27, 2-(4-(4-(aminomethyl)-1-oxo-1,2-dihydrophthalazin-6-yl)-1-methyl-1H-pyrazol-5-yl)-6-cyclopropoxy-4-(3-(dimethylamino)pyrrolidin-1-yl)-3-fluorobenzonitrile] |
|  |  | 188 | Cn1ncc(-c2cc(C#N)c3c(=O)[nH]nc(CN)c3c2)c1-c1c(F)cc2ccccc2c1C#N (atropisomer, axis not shown; (P)) [Example 4, (P)-1-(aminomethyl)-7-(5-(1-cyano-3-fluoronaphthalen-2-yl)-1-methyl-1H-pyrazol-4-yl)-4-oxo-3,4-dihydrophthalazine-5-carbonitrile] |
| 93 |  |  | Cn1ncc(-c2ccc3c(=O)[nH]nc(CN)c3c2)c1-c1c(F)c(Cl)cc(N2CC3(C2)CC(F)(F)C3)c1C#N [Example 31, 2-(4-(4-(aminomethyl)-1-oxo-1,2-dihydrophthalazin-6-yl)-1-methyl-1H-pyrazol-5-yl)-4-chloro-6-(6,6-difluoro-2-azaspiro[3.3]heptan-2-yl)-3-fluorobenzonitrile] |
| 27 |  |  | C#Cc1cc(-c2cnn(C)c2-c2c(F)c(Cl)cc(OC3CC3)c2C#N)cc2c(CN)n[nH]c(=O)c12 [Example 7, 2-(4-(4-(aminomethyl)-8-ethynyl-1-oxo-1,2-dihydrophthalazin-6-yl)-1-methyl-1H-pyrazol-5-yl)-4-chloro-6-cyclopropoxy-3-fluorobenzonitrile] |
|  |  | 16 | Cn1ncc(-c2cc(C#N)c3c(=O)[nH]nc(CN)c3c2)c1-c1c(F)cc2ccccc2c1C#N (atropisomer, axis not shown; (M)) [Example 5, (M)-1-(aminomethyl)-7-(5-(1-cyano-3-fluoronaphthalen-2-yl)-1-methyl-1H-pyrazol-4-yl)-4-oxo-3,4-dihydrophthalazine-5-carbonitrile] |
| 12 |  |  | C#Cc1cc(-c2cnn(C)c2-c2c(F)c(Cl)cc(N3CCCC3)c2C#N)cc2c(CN)n[nH]c(=O)c12 [Example 10, 2-(4-(4-(aminomethyl)-8-ethynyl-1-oxo-1,2-dihydrophthalazin-6-yl)-1-methyl-1H-pyrazol-5-yl)-4-chloro-3-fluoro-6-(pyrrolidin-1-yl)benzonitrile] |
| 122 |  |  | Cn1ncc(-c2cc(-c3ccccc3)c3c(=O)[nH]nc(CN)c3c2)c1-c1c(F)c(Cl)cc(OC2CC2)c1C#N [Example 13, 2-(4-(4-(aminomethyl)-1-oxo-8-phenyl-1,2-dihydrophthalazin-6-yl)-1-methyl-1H-pyrazol-5-yl)-4-chloro-6-cyclopropoxy-3-fluorobenzonitrile] |

| Structure (SMILES) | IC50 ([1]; Homo sapiens, HCT-116, 144 h) [nM] | IC50 [2] [nM] | IC50 [1] [nM] |
| --- | --- | --- | --- |
| Cn1ncc(-c2ccc3c(=O)[nH]nc(CN)c3c2)c1-c1c(F)c(Cl)cc(N2C3CCC2CC3)c1C#N [Example 21, 2-(4-(4-(aminomethyl)-1-oxo-1,2-dihydrophthalazin-6-yl)-1-methyl-1H-pyrazol-5-yl)-6-(7-azabicyclo[2.2.1]heptan-7-yl)-4-chloro-3-fluorobenzonitrile] | 161 |  |  |
| Cn1ncc(-c2ccc3c(=O)[nH]nc(CN)c3c2)c1-c1c(F)c(Cl)cc(OC2CC(F)(F)C2)c1C#N [Example 37, 2-(4-(4-(aminomethyl)-1-oxo-1,2-dihydrophthalazin-6-yl)-1-methyl-1H-pyrazol-5-yl)-4-chloro-6-(3,3-difluorocyclobutoxy)-3-fluorobenzonitrile] | 133 |  |  |
